Legend:
Synthetic human IAPP = target: T1, Synthetic human IAPP (Homo sapiens, UniProt P10997); experiment: Rate of amyloid fibril formation by Thioflavine T (ThT) spectroscopy; type: biochemical; conditions: ThT 62.5 μM; excitation 440 nm, emission 482 nm; readings from 5 min, over 4-6 h and after overnight at room temperature
T1 construct: Synthetic human IAPP (Bachem) was dissolved in 40% trifluoroethanol and freeze-dried; purchased Bachem; host or cells: chemical synthesis
T1 sequence (P10997 34-70 limits assumed): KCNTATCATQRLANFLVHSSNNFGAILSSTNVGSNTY
Protocol: Determination of the Rate of Amyloid Fibril Formation by Thioflavine T Spectroscopy
Detection of ThT fluorescence can be used as a sensitive assay for amyloid fibril formation under different conditions.
Synthetic human IAPP (Bachem) was dissolved in 40% trifluoroethanol and freeze-dried into conveniently-sized aliquots. IAPP was prepared immediately before the measurements by dissolving in 40% 1,1,1,3,3,3-hexafluoro-2-propanol (HFIP) in water to maintain the peptide in alpha helical conformation and soluble. A stock solution of ThT (2.5 mM) was prepared, 7.9 mg in 10 mL Tris-HCl pH 7.0 and filtered (0.22 μm). Solutions were kept in the dark until use. Fluorescence was examined at 440 nm excitation (slit 5 nm), and emission at 482 nm (slit 10 nm) with stirring. […] The sample was stirred for 5 min. before taking a reading. Measurements were made at an initial time point (5 min. from sample preparation), at intervals over the next 4-6 h and after overnight incubation at room temperature.

IAPP = target: T2, IAPP (Homo sapiens, UniProt P10997); experiment: Circular dichroism analysis of IAPP-associated fibril formation (β-sheet conformation), co-incubation procedure; type: biochemical; conditions: change in ellipticity at 218 nm vs peptide-only control; molar ratio 1:10 peptide:compound; water or 10 mM phosphate buffer pH 7; relative value active / not active
T2 construct: add 10 μL of 10 mg/mL IAPP stock solution (final 100 μg peptide)
T2 sequence (P10997 34-70 limits assumed): T1 sequence (P10997 34-70 limits assumed)
Protocol: Cell/cuvette: Hellma quartz (QS) with 1.0 mm pathlength
Wavelength interval: 250 nm-190 nm
Scanning speed: 20 nm/min
The assay, a co-incubation procedure, examines the ability of a compound or substance to inhibit the assembly of amyloid fibrils, e.g., to test for the presence of the amyloidotic β-sheet conformation in the presence of soluble IAPP. Samples are run in the presence and absence (i.e., water alone) of buffering agent, which is done to determine if competitive effects are seen with the ionic buffer (usually phosphate).
Add components used at a molar ratio of 1:10 [peptide:compound]; add 10 μL of 10 mg/mL IAPP stock solution (final 100 μg peptide) to the aqueous solution containing compound to a final volume of 400 μl. The pH of the final assay solution is measured to ensure there is no fluctuation and the spectrum is accumulated using the parameters as shown above.
Add desired amount of compound to achieve a 1:10 molar ratio in 10 mM phosphate buffer, pH 7. Add 10 μL of 10 mg/mL IAPP stock solution (final peptide 100 μg) to the phosphate buffered solution containing the compound and bring to a final volume of 400 μL. The pH of the final assay solution is measured to ensure there is no fluctuation and the spectrum is accumulated using the parameters as shown above.
In both assays, a control sample is run with each test group.
Make fresh 1 mg/mL stock solution of IAPP in 10 mM phosphate buffer, pH 7. Add desired amount of compound to achieve a 1:10 molar ratio in 10 mM phosphate buffer, pH 7. Incubate for 3 days at room temperature. Make up to final volume of 400 μL with 10 mM phosphate buffer, pH 7. The pH of the final assay solution is measured to ensure there is no fluctuation and the spectrum is accumulated using the parameters as shown above.
Plots of the spectra (control and treated) are individually assembled and the changes in ellipticity at 218 nm are examined. This minimum is directly correlated with the amount of β-sheet present in the sample.

Structure (SMILES)	Activity (IAPP)	effect on IAPP-associated fibril assembly (ThT fluorescence) (Synthetic human IAPP)
Cl.c1ccc2c(c1)CCNC2 [1,2,3,4-tetrahydroisoquinoline, HCl]	Active	inhibit or prevent IAPP-associated fibril assembly
O=S(=O)([O-])CCCN1CC=C(c2ccccc2)CC1.[Na+] [4-phenyl-1-(3′-sulfopropyl)-1,2,3,6-tetrahydropyridine, sodium salt]	Active	inhibit or prevent IAPP-associated fibril assembly
COc1ccc(S(=O)(=O)[O-])c2cccnc12.[Na+] [8-methoxyquinoline-5-sulfonic acid, sodium salt]	Active	inhibit or prevent IAPP-associated fibril assembly
O=C(O)C(F)(F)C(F)(F)C(F)(F)C(=O)O [hexafluoroglutaric acid]	Active	inhibit or prevent IAPP-associated fibril assembly

Further lines, with some results ahead:

Activity (IAPP)	Structure (SMILES)	effect on IAPP-associated fibril assembly (ThT fluorescence) (Synthetic human IAPP)
Active	O=S(=O)(O)CCCNCCCO [3-(3-hydroxy-1-propyl)amino-1-propanesulfonic acid]	inhibit or prevent IAPP-associated fibril assembly
Active	NCC(O)CS(=O)(=O)O (stereo not drawn) [3-amino-2-hydroxy-1-propanesulfonic acid]	inhibit or prevent IAPP-associated fibril assembly
Active	CN(C)CCCS(=O)(=O)O [3-dimethylamino-1-propanesulfonic acid]	inhibit or prevent IAPP-associated fibril assembly
Active	N[C@@H](COP(=O)(O)O)C(=O)O [O-phospho-L-serine]	inhibit or prevent IAPP-associated fibril assembly
Active	O=S(=O)([O-])NC1CCCCC1.[Na+] [cyclohexylsulfamic acid, sodium salt]	inhibit or prevent IAPP-associated fibril assembly
